Earlier results on two compounds are cited in patent US8552051B2 (H. L. Hall & Sons Limited, priority 2009, dated 2013).

For one series, the system named is PDE4. The following applies: Napoletano, M. et al. 2001.
The target in a further series is 5-HT uptake (Homo sapiens, UniProt P31645). The settings on record: U.S. Pat. No. 6,288,104.

Each structure is given as a SMILES string.

Chain of 5-HT uptake (P31645 whole entry): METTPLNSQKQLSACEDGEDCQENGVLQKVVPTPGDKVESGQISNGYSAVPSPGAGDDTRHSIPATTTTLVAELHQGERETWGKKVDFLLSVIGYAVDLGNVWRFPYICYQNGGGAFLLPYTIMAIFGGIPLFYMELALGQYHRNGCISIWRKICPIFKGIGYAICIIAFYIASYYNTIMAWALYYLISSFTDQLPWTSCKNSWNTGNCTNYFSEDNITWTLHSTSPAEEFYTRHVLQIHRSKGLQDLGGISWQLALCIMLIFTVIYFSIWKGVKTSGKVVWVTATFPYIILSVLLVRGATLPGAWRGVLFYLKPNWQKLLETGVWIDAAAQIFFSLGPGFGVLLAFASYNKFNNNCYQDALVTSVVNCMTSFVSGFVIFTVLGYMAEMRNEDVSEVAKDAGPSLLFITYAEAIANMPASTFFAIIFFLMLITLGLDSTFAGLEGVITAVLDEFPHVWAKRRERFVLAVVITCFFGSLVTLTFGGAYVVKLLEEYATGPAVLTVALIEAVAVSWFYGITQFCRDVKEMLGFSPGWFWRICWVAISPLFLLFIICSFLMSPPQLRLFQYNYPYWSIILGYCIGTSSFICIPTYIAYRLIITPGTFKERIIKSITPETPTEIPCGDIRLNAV

`COc1ccc(C23CCC(=O)CC2N(C)CC3)cc1OC.Cl` (centres unmarked) [Mesembrine hydrochloride]: in the series with PDE4, the “PDE4 inhibition, result in words” value was “weak PDE4 inhibitor”. As for `COc1ccc(C23C=CC(O)CC2N(C)CC3)cc1OC` (centres unmarked) [mesembrenol], the “5-HT uptake inhibitory activity, result in words” value on 5-HT uptake was “potent 5-HT uptake inhibitory activity”.
